For data set [1], the system named is solid and lymphoproliferative murine tumors. The conditions noted are these: background statement; cited from earlier work.
The conditions of data set [2]: background statement; cited from earlier work.
In another data set the test system is tumor cells. The conditions noted are these: cited from earlier work.
Another data set relates to P388 murine leukaemia. As to the kind of experiment: Antitumoral activity in vivo, survival of P388 murine leukemia carrier mice. More on the design: species or system B6D2F1 female mice. The method, then: (§1) The antitumoral activity of compounds having the formula trans-[PtCl2(NH3){Z-HN═C(OMe)Me}] (1) and trans-[PtCl2(NH3){E-HN═C(OMe)Me}] (2) was tested. Specifically, the antitumoral activity of compounds (1) and (2) was analyzed in experimental systems in vitro, testing for inhibition of the proliferation of human tumor cells in culture and in vivo by testing the increment in survival of mice carriers of P388 murine leukemia.
The antiumoral activity in vivo of compounds 1 and 2, expressed as an increment in the survival of P388 murine leukemia carrier mice, was also tested.
(§2) ^a P388 leukemic cells (10^6/animal) were inoculated in the peritoneum in B6D2F1 female mice (body weight=18 g) on day 0; treatment with the platinum compounds, dissolved at the time of use in a physiological solution, was performed on days 1-7, administering IP the doses indicated in the table in a volume equal to 0.1 ml/10 g body weight.
^c ILS=(average of the days of survival of treated mice/average of days of survival of untreated mice) X 100.

The test system of data set [3] is pulmonary carcinoma (Calu). As to the kind of experiment: Inhibition of in vitro proliferation of human tumor cells, Calu. In kind it is cell-based. The conditions noted are these: 72 hours treatment, cell number vs untreated control; read-out: Inhibitory concentrations (IC50) Calu. The method, then: as §1
(§3) The inhibitory effect of compounds (1) and (2) on the in vitro proliferation of human tumor cells of ovarian carcinoma (A2780), pulmonary carcinoma (Calu), colon carcinoma (LoVo) and on an ovarian carcinoma line (A2780/cp8) with resistance to cisplatinum is presented in the following Table I.
(§4) Proliferation inhibition is expressed by means of IC50 values, which indicate the concentration of compound (μM) in the culture medium that determines a 50% reduction in the proliferation of the treated cells with respect to untreated cells.
(§5) The IC50 values were extrapolated from dose-response curves obtained by treating for 72 hours the tumor cells with various concentrations of the tested compounds dissolved in the culture medium and checking, at the end of the incubation period, the number of cells present in the treated samples with respect to the number of cells in the untreated samples (control).

Data set [4] has as its system ovarian carcinoma line (A2780/cp8) with resistance to cisplatinum. The data set is described as follows: Inhibition of in vitro proliferation of human tumor cells, A2780/cp8. In kind it is cell-based. The conditions noted are these: 72 hours treatment, cisplatinum-resistant line; read-out: Inhibitory concentrations (IC50) A2780/cp8. The method, then:
as §1, §3, §4, §5

The next data set relates to colon carcinoma (LoVo). The data set is described as follows: Inhibition of in vitro proliferation of human tumor cells, LoVo. In kind it is cell-based. The conditions noted are these: 72 hours treatment, cell number vs untreated control; read-out: Inhibitory concentrations (IC50) Lo Vo. On the procedure:
as §1, §3, §4, §5

In data set [5] the test system is ovarian carcinoma (A2780). The data set is described as follows: Inhibition of in vitro proliferation of human tumor cells, A2780. In kind it is cell-based. The conditions noted are these: 72 hours treatment, cell number vs untreated control; read-out: Inhibitory concentrations (IC50) A2780. On the procedure: as §1, §3, §4, §5
Data set [6] can be described thus: Body weight variation and toxicity in treated P388 carrier mice. The conditions noted are these: at the end of the treatment. In kind it is in vivo. On the procedure: as §2
^b Percentage variation of body weight of the animals at the end of the treatment.

Where [7] appears, read: 10 mg/kg IP daily, ILS = (average survival days treated/untreated) × 100.
[8] abbreviates: 15 mg/kg IP daily, ILS = (average survival days treated/untreated) × 100.
[9] abbreviates: 20 mg/kg IP daily, ILS calculated on 4 animals.

pIC50: −log10 of the molar value. Marks after values point to notes of the source that are not given here.

Take `COC(C)=N.COC(C)=N.[Cl][Pt][Cl]` [trans-[PtCl2{E-HN═C(OMe)Me}2]]: the “antitumoral activity in vivo” value in data set [1] is reported as “antitumoral activity in vivo”.

Turning to `N.N.[Cl][Pt+2][Cl]` [trans-DDP, trans-[PtCl2(NH3)2]], the antitumoral activity result in [2] is “no antitumoral activity”.

On to `[Cl][Pt][Cl].c1ccncc1.c1ccncc1` [trans-[PtCl2(pyridine)2]], for which, in the data set with tumor cells, the “cytotoxic effect in vitro against tumor cells” value is “higher cytotoxic effect in vitro against tumor cells than trans-DDP”.

Turning to `COC(C)=N.N.[Cl][Pt][Cl]` [Compound 1, trans-[PtCl2(NH3){Z-HN═C(OMe)Me}]], the ILS in the data set with P388 murine leukaemia (setting [7]) was 165; in the data set with P388 murine leukaemia (setting [8]), 173; in the data set with P388 murine leukaemia (setting [9]), 190^d. Also, the pIC50 in data set [3] was 4.05; in data set [4], 4.46; with colon carcinoma (LoVo), 4.68; in data set [5], 4.43. For the same compound, the “Percentage variation of body weight” value in data set [6] (10 mg/kg IP daily) was −1.5%; in [6] (15 mg/kg IP daily), −4.4%; in [6] (20 mg/kg IP daily) it was −11.5%.

Consider `N.NC1CCCCC1.[OH][Pt]([OH])([Cl])[Cl]` [trans-[PtCl2(OH)2(NH3){NH2(C6H11)}]], for which, in data set [2], the antitumoral activity entry was “antitumoral activity in vitro and in vivo”.

For `COC(C)=N.N.[Cl][Pt][Cl]` [Compound 2, trans-[PtCl2(NH3){E-HN═C(OMe)Me}]], the ILS with P388 murine leukaemia (setting [7]) was 128; in the data set with P388 murine leukaemia (setting [8]), 152; in the data set with P388 murine leukaemia (setting [9]), 132^e. The pIC50 in [3] is 4.26; in [4], 5.07; in the data set with colon carcinoma (LoVo), 5.15; in [5] it was 5.07. For the same compound, the “Percentage variation of body weight” value is on record as −1.8% in data set [6] (10 mg/kg IP daily), −3.1% in data set [6] (15 mg/kg IP daily) and −10% in data set [6] (20 mg/kg IP daily).

The values above are taken from patent US6458983B1, “Method for synthesizing complexes of platinum with iminoethers and their use as antitumoral drugs and nucleotide-base modifiers” (priority 1998, dated 2002).
